Assay results published in patent publication US20080114055A1, “Thioxanthone Compounds to Reverse Weight Loss” (ZOLTAN LABORATORIES LLC, priority 2006, published 2008).

What was measured:
[1] = test system: HL60 human leukemia tumor; assay: HL60 human leukemia tumor model: body, total and tumor weight; format: in vivo, mice; settings: for Body weight: total minus tumor weight
From the text: Tumors were developed in a homozygous line of C.B.-171 cr scid/scid adult female mice kept at specified pathogen free (SPF) hygienic levels. Suspensions of HL-60 human leukemia cells (about 1,500,000 cells), or approximately 0.1 cm^3 volume of tumor tissue derived from HT-168 human melanoma, PC-3 human prostate adenocarcinoma, or T47D human breast carcinoma were implanted subcutaneously to develop the tumors. After 12-18 days when the tumor-bearing mice were first treated, the size of the tumors was in the 0.2-0.4 cm^3 range. CCcompound1 was dissolved in physiological (0.9%) saline (NaCl) and applied subcutaneously in 50 μl volume. Tumor volume was determined by calipers in three dimensions; this technique is well known to one having ordinary skill in the art. Tumor volume was calculated according to the generally accepted formula: V=a^2×b×π/6, where “a” and “b” mean the shortest and longest diameter, respectively, of the measured tumor. Tumor weight was calculated from tumor volume using a 0.7 (tumor weight) : 1 (tumor volume) ratio. Total weight and tumor volume/weight was measured regularly (at least every second day). In all tumor experiments, each treatment group consisted of five animals. Accordingly, all data are the average of five independent determinations (one determination for each animal). HL60 human tumors were developed in mice as described above. Treatments with CCcompound1 were started on day 18 after tumor implantation and conducted for the first five days and then for three days with two treatment-free days inserted between the two series of treatments. The results, shown in TABLE 2, indicate that between day 18 and 27 after tumor implantation, the leukemia tumor caused about 4-g loss in body weight.

[2] = test system: PC-3 human prostate tumor; assay: PC-3 human prostate cancer model: body, total and tumor weight; format: in vivo, mice; settings: for Body weight: total minus tumor weight
From the text: Tumors were developed in a homozygous line of C.B.-171 cr scid/scid adult female mice kept at specified pathogen free (SPF) hygienic levels. Suspensions of HL-60 human leukemia cells (about 1,500,000 cells), or approximately 0.1 cm^3 volume of tumor tissue derived from HT-168 human melanoma, PC-3 human prostate adenocarcinoma, or T47D human breast carcinoma were implanted subcutaneously to develop the tumors. After 12-18 days when the tumor-bearing mice were first treated, the size of the tumors was in the 0.2-0.4 cm^3 range. CCcompound1 was dissolved in physiological (0.9%) saline (NaCl) and applied subcutaneously in 50 μl volume. Tumor volume was determined by calipers in three dimensions; this technique is well known to one having ordinary skill in the art. Tumor volume was calculated according to the generally accepted formula: V=a^2×b×π/6, where “a” and “b” mean the shortest and longest diameter, respectively, of the measured tumor. Tumor weight was calculated from tumor volume using a 0.7 (tumor weight) : 1 (tumor volume) ratio. Total weight and tumor volume/weight was measured regularly (at least every second day). In all tumor experiments, each treatment group consisted of five animals. Accordingly, all data are the average of five independent determinations (one determination for each animal). PC-3 human tumors were developed in mice as described above. Treatments with CCcompound1 were started on day 12 after tumor implantation and conducted for five days and then for another three days with two treatment-free days inserted between the two series of treatments. The results, shown in TABLE 4, indicate that between day 12 and 21 after tumor implantation, the prostate tumor caused about 5.7-g loss in body weight which corresponds to about 22% reduction.

[3] = 0.5 mg/kg s.c., day 18 (treatment start)
[4] = 1.0 mg/kg s.c., day 18 (treatment start)
[5] = 2.0 mg/kg s.c., day 18 (treatment start)
[6] = 1.0 mg/kg s.c., day 12 (treatment start)
[7] = 2.0 mg/kg s.c., day 12 (treatment start)
[8] = 4.0 mg/kg s.c., day 12 (treatment start)

Compound `Cc1c(OCC(O)C[N+](C)(C)C)cc2c(=O)c3ccccc3sc2c1C.[Cl-]` (stereo not shown) [CCcompound1, [3-(3,4-Dimethyl-9-oxo-9H-thioxanthen-2-yloxy)-2-hydroxypropyl]trimethyl-ammonium chloride] has a Tumor weight [1, 3] of 0.7 g, a Body weight [1, 3] of 25.5 g and a Total weight ([1]; 0.5 mg/kg s.c., day 18 after tumor transplantation (treatment start)) of 26.2 g. The Tumor weight ([1]; 0.5 mg/kg s.c., day 27) was 2.8 g, the Body weight ([1]; 0.5 mg/kg s.c., day 27) was 24.0 g and the Total weight ([1]; 0.5 mg/kg s.c., day 27 after tumor transplantation) was 26.8 g. It also gave a Total weight [1, 4] of 26.2 g, a Tumor weight [1, 4] of 0.4 g and a Body weight [1, 4] of 25.8 g. It also gave a Total weight ([1]; 1.0 mg/kg s.c., day 27) of 30.3 g, a Tumor weight ([1]; 1.0 mg/kg s.c., day 27) of 1.9 g and a Body weight ([1]; 1.0 mg/kg s.c., day 27) of 28.4 g. The Total weight [1, 5] was 27.0 g, the Tumor weight [1, 5] was 0.5 g and the Body weight [1, 5] was 26.5 g. The Total weight ([1]; 2.0 mg/kg s.c., day 27) was 30.6 g, the Tumor weight ([1]; 2.0 mg/kg s.c., day 27) was 1.9 g and the Body weight ([1]; 2.0 mg/kg s.c., day 27) was 28.7 g. For the same compound, the “Effect on body weight loss” value ([1]; 0.5-mg/kg, between day 18 and 27) was “reduced body weight loss”, the “Effect on body weight” value ([1]; 1-mg/kg, between day 18 and 27) was “gained weight” and the “Effect on body weight” value ([1]; 2-mg/kg, between day 18 and 27) was “gained weight”. For the same compound, the “Reduction of tumor weight” value ([1]; higher amounts of CCcompound1, day 27) was “about 45%”, the Tumor weight [2, 6] was 0.4 g and the Body weight [2, 6] was 25.9 g. For the same compound, the Total weight ([2]; 1.0 mg/kg s.c., day 12 after tumor transplantation (treatment start)) was 26.3 g, the Tumor weight ([2]; 1.0 mg/kg s.c., day 21) was 2.2 g and the Body weight ([2]; 1.0 mg/kg s.c., day 21) was 23.1 g. The Total weight ([2]; 1.0 mg/kg s.c., day 21 after tumor transplantation) was 25.3 g, the Total weight [2, 7] was 26.1 g and the Tumor weight [2, 7] was 0.4 g. The Body weight [2, 7] was 25.7 g, the Total weight ([2]; 2.0 mg/kg s.c., day 21) was 28.4 g and the Tumor weight ([2]; 2.0 mg/kg s.c., day 21) was 1.9 g. The Body weight ([2]; 2.0 mg/kg s.c., day 21) was 26.5 g, the Total weight [2, 8] was 26.9 g and the Tumor weight [2, 8] was 0.2 g. The Body weight [2, 8] was 26.7 g, the Total weight ([2]; 4.0 mg/kg s.c., day 21) was 32.4 g and the Tumor weight ([2]; 4.0 mg/kg s.c., day 21) was 1.4 g. For the same compound, the Body weight ([2]; 4.0 mg/kg s.c., day 21) was 31.0 g, the “Effect on body weight loss” value ([2]; 1-mg/kg, between day 12 and 21) was “only partially prevented body weight loss” and the Body weight gain ([2]; 4-mg/kg, between day 12 and 21) was 4.3 g. The “Reduction of tumor weight” value ([2]; 4-mg/kg, day 21) was “about 48%”.
